In patent US12054498B2, “Heteroaromatic macrocyclic ether chemotherapeutic agents” (Nuvalent, Inc., priority 2020, dated 2024):

Tests used:
[1] = molecular target: T1, Ba/F3 cells CD74-ROS1 G2032R (Homo sapiens, UniProt P08922, G2032R); experiment: Ba/F3 cell proliferation assay, CD74-ROS1 G2032R; type: cell-based; settings: 72 hours, CellTiter-Glo
T1 construct: fusion of the C-terminus of ROS1 with the N-terminus of various partner proteins; host or cells: Ba/F3 (RIKEN), retroviral pMSCV-puro; the other entry of the earlier key: CD74 (P04233, HLA class II histocompatibility antigen gamma chain)
Procedure, shortened: (§1)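 IL-3-independent Ba/F3 CD74-ROS1 lines, puromycin-selected monoclones; 1,000 cells/well, plated 1 d before dosing; 3-fold serial dilutions, 72 h; CellTiter-Glo luminescence; IC50 by 4-parameter logistic regression.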

[2] = molecular target: T2, Ba/F3 cells CD74-ROS1 wild-type (wt) (Homo sapiens, UniProt P08922); experiment: Ba/F3 cell proliferation assay, CD74-ROS1 wild-type; type: cell-based; settings: 72 hours, CellTiter-Glo
T2 construct: fusion of the C-terminus of ROS1 with the N-terminus of various partner proteins; host or cells: Ba/F3 (RIKEN), retroviral pMSCV-puro; the other entry of the earlier key: CD74 (P04233, HLA class II histocompatibility antigen gamma chain)
Procedure, shortened: as §1

[3] = molecular target: T3, ROS1-G2032R (Homo sapiens, UniProt P08922, G2032R); experiment: Biochemical kinase assay, ROS1-G2032R kinase domain; settings: apparent inhibitory constant, Morrison equation; ATP 2 mM in substrate solution; read-out: ROS1-G2032R Ki^app
T3 construct: purchased SignalChem R14-12BG
Procedure, shortened: (§2)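 Kinetic read: 485 nm, 2-min intervals, 120 min, 30 °C. Substrate mix — ATP 2 mM, AQT0101 26 μM, HEPES 50 mM pH 7.5, MgCl2 10 mM. Output: Ki^app, Morrison equation.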

[4] = tested on: TPM3-NTRK1-wt IC50 / primary target IC50 (e.g. CD74-ROS1-wt); experiment: TRKA selectivity in Ba/F3 cells (TRKA potency divided by primary target potency); type: cell-based; settings: for TPM3-NTRK1-wt/CD74-ROS1-G2032R selectivity ratio: TRKA potency / CD74-ROS1-G2032R potency; for TPM3-NTRK1-wt/CD74-ROS1-wt selectivity ratio: TRKA potency / CD74-ROS1-wt potency; for TPM3-NTRK1-wt/EML4-ALK-L1196M-G1202R selectivity ratio: TRKA potency / EML4-ALK-L1196M-G1202R potency; for TPM3-NTRK1-wt/EML4-ALK-wt selectivity ratio: TRKA potency / EML4-ALK-wt potency
Experimental: TRKA selectivity was calculated by dividing a compound's TRKA potency by its primary target potency (e.g. TPM3-NTRK1-wt IC50/CD74-ROS1-wt IC50). Compound selectivity can be interpreted by binning ratio values: bin A for very high selectivity, ratio >30-fold; bin B for high selectivity, ratio >10-fold; bin C for moderate selectivity, ratio ≥1; and bin D for low selectivity, ratio <1. […] (nd=not determined).

[5] = molecular target: T4, ALK L1196M/G1202R (Homo sapiens, UniProt Q9UM73, G1202R/L1196M); experiment: Biochemical kinase assay, ALK L1196M/G1202R kinase domain; settings: apparent inhibitory constant, Morrison equation; ATP 2 mM in substrate solution; read-out: ALK-L1196M-G1202R Ki^app
T4 construct: purchased SignalChem A19-12NG
Procedure, shortened: (§3)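 Compound in DMSO added first, then substrate solution (ATP 2 mM; AQT0101 or AQT0104, 26 μM; pH 7.5 HEPES, 10 mM MgCl2), then kinase solution with enzyme at 0.5–3 nM depending on construct. Kinetic read every 2 min for 120 min at 30° C; Ki^app by Morrison regression.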

[6] = molecular target: T5, ALK-wt (Homo sapiens, UniProt Q9UM73); experiment: Biochemical kinase assay, ALK-wt kinase domain; settings: apparent inhibitory constant, Morrison equation; ATP 2 mM in substrate solution; read-out: ALK-wt Ki^app
T5 construct: purchased Carna 08-518
Procedure, shortened: as §3

[7] = molecular target: T6, ROS1-wt (Homo sapiens, UniProt P08922); experiment: Biochemical kinase assay, ROS1-wt kinase domain; settings: apparent inhibitory constant, Morrison equation; ATP 2 mM in substrate solution; read-out: ROS1-wt Ki^app
T6 construct: purchased Carna 08-163
Procedure, shortened: as §2

[8] = molecular target: T7, Ba/F3 cells EML4-ALK L1196M/G1202R (variant 1) (Homo sapiens, UniProt Q9UM73, G1202R/L1196M); experiment: Ba/F3 cell proliferation assay, EML4-ALK L1196M/G1202R (variant 1); type: cell-based; settings: 72 hours, CellTiter-Glo
T7 construct: echinoderm microtubule-associated protein-like 4 (EML4) gene and the ALK tyrosine kinase domain; host or cells: Ba/F3 (RIKEN), retroviral pMSCV-puro; the other entry of the earlier key: EML4 (Q9HC35, Echinoderm microtubule-associated protein-like 4)
Procedure, shortened: (§4)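 IL-3-independent Ba/F3 monoclones, puromycin-selected, transduced with fusion genes; 1,000 cells/well, 1 day rest, 3-fold compound series, 72 h. Read: CellTiter-Glo luminescence. IC50 from % inhibition vs concentration, 4-parameter logistic.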

[9] = molecular target: T8, Ba/F3 cells EML4-ALK wt (variant 1) (Homo sapiens, UniProt Q9UM73); experiment: Ba/F3 cell proliferation assay, EML4-ALK wt (variant 1); type: cell-based; settings: 72 hours, CellTiter-Glo
T8 construct: echinoderm microtubule-associated protein-like 4 (EML4) gene and the ALK tyrosine kinase domain; host or cells: Ba/F3 (RIKEN), retroviral pMSCV-puro; the other entry of the earlier key: EML4 (Q9HC35, Echinoderm microtubule-associated protein-like 4)
Procedure, shortened: as §4

[10] = molecular target: T9, TRKA-wt (Homo sapiens, UniProt P04629); experiment: Biochemical kinase assay, TRKA-wt kinase domain; settings: apparent inhibitory constant, Morrison equation; ATP 2 mM in substrate solution; read-out: TRKA-wt Ki^app
T9 construct: or TRKA-wt (1 nM, BPS Bio, 40280) kinase domains in buffer; purchased BPS Bio 40280
Procedure, shortened: as §3

[11] = molecular target: T10, Ba/F3 cells TPM3-TRKA (Homo sapiens, UniProt P04629); experiment: Ba/F3 cell proliferation assay, TPM3-TRKA; type: cell-based; settings: 72 hours, CellTiter-Glo, read-out: TPM3-NTRK1-wt IC50
T10 construct: host or cells: Ba/F3 (RIKEN), retroviral pMSCV-puro; the other entry of the earlier key: TPM3 (P06753, Tropomyosin alpha-3 chain)
Procedure, shortened: as §4

T6 sequence (P08922 1945-2222 limits assumed): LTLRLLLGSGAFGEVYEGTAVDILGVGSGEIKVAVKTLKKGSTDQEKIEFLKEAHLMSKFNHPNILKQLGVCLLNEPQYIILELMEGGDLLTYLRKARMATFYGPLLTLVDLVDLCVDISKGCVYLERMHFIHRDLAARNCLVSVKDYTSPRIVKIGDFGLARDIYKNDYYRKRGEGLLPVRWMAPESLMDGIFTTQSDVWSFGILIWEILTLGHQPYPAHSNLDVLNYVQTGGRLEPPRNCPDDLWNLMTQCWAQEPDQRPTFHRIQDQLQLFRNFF
T1 sequence (P08922 1883-2347 G2032R limits assumed): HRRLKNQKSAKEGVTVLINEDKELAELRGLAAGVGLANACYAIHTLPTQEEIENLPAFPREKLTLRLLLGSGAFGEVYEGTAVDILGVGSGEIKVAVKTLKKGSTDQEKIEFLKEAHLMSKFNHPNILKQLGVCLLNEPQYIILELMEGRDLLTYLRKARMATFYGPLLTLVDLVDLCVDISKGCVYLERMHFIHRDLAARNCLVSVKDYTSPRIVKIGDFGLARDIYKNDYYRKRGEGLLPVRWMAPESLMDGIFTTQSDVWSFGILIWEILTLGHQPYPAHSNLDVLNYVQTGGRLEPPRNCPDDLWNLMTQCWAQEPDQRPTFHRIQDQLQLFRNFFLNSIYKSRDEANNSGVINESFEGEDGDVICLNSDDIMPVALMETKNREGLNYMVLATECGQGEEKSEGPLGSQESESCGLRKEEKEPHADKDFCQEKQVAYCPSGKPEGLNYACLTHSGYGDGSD
T9 sequence (P04629 510-781 limits assumed): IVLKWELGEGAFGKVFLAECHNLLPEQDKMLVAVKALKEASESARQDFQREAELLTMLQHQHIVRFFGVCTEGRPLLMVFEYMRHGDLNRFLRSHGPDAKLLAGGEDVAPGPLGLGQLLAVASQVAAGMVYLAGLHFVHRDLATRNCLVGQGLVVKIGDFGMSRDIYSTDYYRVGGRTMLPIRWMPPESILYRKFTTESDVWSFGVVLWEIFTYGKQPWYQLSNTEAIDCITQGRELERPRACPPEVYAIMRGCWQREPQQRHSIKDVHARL
T2 sequence (P08922 1883-2347 limits assumed): as the sequence (P08922 1883-2347 G2032R limits assumed) above, with R150G counted along it
T8 sequence (Q9UM73 with tags, fused parts or gaps): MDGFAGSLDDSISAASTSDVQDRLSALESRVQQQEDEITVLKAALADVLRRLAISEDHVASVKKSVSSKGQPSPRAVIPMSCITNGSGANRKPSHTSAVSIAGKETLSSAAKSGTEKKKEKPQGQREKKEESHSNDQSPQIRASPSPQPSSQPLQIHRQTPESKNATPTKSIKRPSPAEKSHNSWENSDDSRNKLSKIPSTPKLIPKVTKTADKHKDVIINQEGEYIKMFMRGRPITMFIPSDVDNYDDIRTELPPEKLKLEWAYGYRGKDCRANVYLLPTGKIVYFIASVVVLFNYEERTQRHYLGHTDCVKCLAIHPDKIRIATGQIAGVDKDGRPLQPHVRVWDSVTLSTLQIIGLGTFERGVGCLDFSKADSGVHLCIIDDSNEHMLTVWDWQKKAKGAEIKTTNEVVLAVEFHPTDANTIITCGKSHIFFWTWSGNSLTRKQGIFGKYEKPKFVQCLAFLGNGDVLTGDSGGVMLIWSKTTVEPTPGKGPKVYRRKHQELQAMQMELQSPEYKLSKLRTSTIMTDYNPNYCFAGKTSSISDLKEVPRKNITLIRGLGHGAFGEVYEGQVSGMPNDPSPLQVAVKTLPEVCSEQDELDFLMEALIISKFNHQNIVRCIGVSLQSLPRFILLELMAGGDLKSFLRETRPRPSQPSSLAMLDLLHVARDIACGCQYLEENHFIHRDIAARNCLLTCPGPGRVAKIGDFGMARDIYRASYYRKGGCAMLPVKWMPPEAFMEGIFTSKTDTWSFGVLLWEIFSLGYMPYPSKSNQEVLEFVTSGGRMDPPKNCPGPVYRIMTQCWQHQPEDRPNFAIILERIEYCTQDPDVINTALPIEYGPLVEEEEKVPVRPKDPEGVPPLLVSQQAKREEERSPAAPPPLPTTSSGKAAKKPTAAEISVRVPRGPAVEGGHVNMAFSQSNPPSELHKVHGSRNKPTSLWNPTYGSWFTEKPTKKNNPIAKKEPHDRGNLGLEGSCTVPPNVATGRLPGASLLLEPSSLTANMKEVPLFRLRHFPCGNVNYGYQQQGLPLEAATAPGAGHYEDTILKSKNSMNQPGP
T4 sequence (Q9UM73 1116-1392 L1196M/G1202R limits assumed): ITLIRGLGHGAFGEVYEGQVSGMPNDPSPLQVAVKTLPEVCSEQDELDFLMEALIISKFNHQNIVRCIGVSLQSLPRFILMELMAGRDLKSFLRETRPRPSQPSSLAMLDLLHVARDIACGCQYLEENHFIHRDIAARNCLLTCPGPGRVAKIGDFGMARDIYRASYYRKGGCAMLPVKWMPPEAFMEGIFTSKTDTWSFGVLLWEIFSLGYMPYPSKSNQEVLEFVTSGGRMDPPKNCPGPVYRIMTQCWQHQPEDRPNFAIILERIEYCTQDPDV
T5 sequence (Q9UM73 1116-1392 limits assumed): as the sequence (Q9UM73 1116-1392 L1196M/G1202R limits assumed) above, with M81L, R87G counted along it
T10 sequence (P04629 510-796 limits assumed): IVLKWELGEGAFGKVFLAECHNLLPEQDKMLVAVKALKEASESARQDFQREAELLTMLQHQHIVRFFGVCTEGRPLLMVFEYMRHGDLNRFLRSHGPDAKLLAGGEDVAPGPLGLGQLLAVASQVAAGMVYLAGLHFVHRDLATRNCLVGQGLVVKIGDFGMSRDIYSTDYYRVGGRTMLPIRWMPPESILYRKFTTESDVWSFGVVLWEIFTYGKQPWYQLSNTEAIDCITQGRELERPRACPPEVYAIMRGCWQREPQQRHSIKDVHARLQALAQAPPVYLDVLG
T3 sequence (P08922 1945-2222 G2032R limits assumed): as the sequence (P08922 1945-2222 limits assumed) above, with G88R counted along it
T7 sequence (Q9UM73 with tags, fused parts or gaps L1196M/G1202R): as the sequence (Q9UM73 with tags, fused parts or gaps) above, with L635M, G641R counted along it

Compound: C[C@H]1Oc2cc(cnc2N)-c2c(C#N)ncn2Cc2ncc(F)cc2-c2ccc(F)cc21 [Example 48, (20R)-23-amino-11,17-difluoro-20-methyl-21-oxa-4,6,9,24-tetraazapentacyclo[20.3.1.0^2,^6.0^8,^13.0^14,^19]hexacosa-1(25),2,4,8(13),9,11,14,16,1 8,22(26),23-undecaene-3-carbonitrile]
- IC50 [1]: 0.1 to 50 nM
- IC50 [2]: 0.1 to 50 nM
- Ki [3]: < 50 nM
- TPM3-NTRK1-wt/CD74-ROS1-G2032R selectivity ratio [4]: A (bin A for very high selectivity, ratio >30-fold)
- TPM3-NTRK1-wt/CD74-ROS1-wt selectivity ratio [4]: A (bin A for very high selectivity, ratio >30-fold)
- TPM3-NTRK1-wt/EML4-ALK-L1196M-G1202R selectivity ratio [4]: B (bin B for high selectivity, ratio >10-fold)
- TPM3-NTRK1-wt/EML4-ALK-wt selectivity ratio [4]: A (bin A for very high selectivity, ratio >30-fold)
- Ki [5]: < 50 nM
- Ki [6]: < 50 nM
- Ki [7]: < 50 nM
- IC50 [8]: 0.1 to 50 nM
- IC50 [9]: 0.1 to 50 nM
- Ki [10]: 50 to 500 nM
- IC50 [11]: > 500 nM

Compound: C[C@H]1Oc2cc(cnc2N)-c2c(C#N)cnn2Cc2ncsc2-c2ccc(F)cc21 [Example 49, (19R)-22-amino-16-fluoro-19-methyl-20oxa-11-thia-5,6,9,23-tetraazapentacyclo[19.3.1.0^2,^6.0^8,^12.0^13,^18]pentacosa-1(24),2,4,8(12),9,13,15,17,21(25),22-decaene-3-carbonitrile]
- IC50 [1]: 50 to 500 nM
- IC50 [2]: 0.1 to 50 nM
- Ki [3]: 50 to 500 nM
- TPM3-NTRK1-wt/CD74-ROS1-G2032R selectivity ratio [4]: B (bin B for high selectivity, ratio >10-fold)
- TPM3-NTRK1-wt/CD74-ROS1-wt selectivity ratio [4]: A (bin A for very high selectivity, ratio >30-fold)
- TPM3-NTRK1-wt/EML4-ALK-L1196M-G1202R selectivity ratio [4]: C (bin C for moderate selectivity, ratio ≥1)
- TPM3-NTRK1-wt/EML4-ALK-wt selectivity ratio [4]: A (bin A for very high selectivity, ratio >30-fold)
- Ki [5]: 50 to 500 nM
- Ki [6]: < 50 nM
- Ki [7]: < 50 nM
- IC50 [8]: > 500 nM
- IC50 [9]: 0.1 to 50 nM
- Ki [10]: > 500 nM
- IC50 [11]: > 500 nM

Compound: CCc1noc2c1-c1cnc(N)c(c1)O[C@H](C)c1cc(F)ccc1-c1ncnn1C2 [Example 50, (19R)-3-ethyl-16-fluoro-19-methyl-5,20-dioxa-4,8,9,11,23-pentaazapentacyclo[19.3.1.0^2,^6.0^8,^12.0^13,^18]pentacosa-1(24),2(6),3,9,11,13,15,17,21(25),22-decaen-22-amine]
- IC50 [1]: 0.1 to 50 nM
- IC50 [2]: 0.1 to 50 nM
- Ki [3]: 50 to 500 nM
- TPM3-NTRK1-wt/CD74-ROS1-G2032R selectivity ratio [4]: B (bin B for high selectivity, ratio >10-fold)
- TPM3-NTRK1-wt/CD74-ROS1-wt selectivity ratio [4]: A (bin A for very high selectivity, ratio >30-fold)
- TPM3-NTRK1-wt/EML4-ALK-L1196M-G1202R selectivity ratio [4]: C (bin C for moderate selectivity, ratio ≥1)
- TPM3-NTRK1-wt/EML4-ALK-wt selectivity ratio [4]: A (bin A for very high selectivity, ratio >30-fold)
- Ki [5]: < 50 nM
- Ki [6]: < 50 nM
- Ki [7]: < 50 nM
- IC50 [8]: 50 to 500 nM
- IC50 [9]: 0.1 to 50 nM
- Ki [10]: 50 to 500 nM
- IC50 [11]: > 500 nM

Compound: C[C@H]1Oc2cc(cnc2N)-c2c(nnn2CC2CC2)Cc2nn(C)nc2-c2ccc(F)cc21 [Example 51, (19R)-3-(cyclopropylmethyl)-16-fluoro-10,19-dimethyl-20-oxa-3,4,5,9,10,11,23-heptaazapentacyclo[19.3.1.0^2,^6.0^8,^12.0^13,^18]pentacosa-1(24),2(6),4,8,11,13,15,17,21(25),22-decaen-22-amine]
- IC50 [1]: 0.1 to 50 nM
- IC50 [2]: 0.1 to 50 nM
- Ki [3]: < 50 nM
- TPM3-NTRK1-wt/CD74-ROS1-G2032R selectivity ratio [4]: A (bin A for very high selectivity, ratio >30-fold)
- TPM3-NTRK1-wt/CD74-ROS1-wt selectivity ratio [4]: A (bin A for very high selectivity, ratio >30-fold)
- TPM3-NTRK1-wt/EML4-ALK-L1196M-G1202R selectivity ratio [4]: A (bin A for very high selectivity, ratio >30-fold)
- TPM3-NTRK1-wt/EML4-ALK-wt selectivity ratio [4]: A (bin A for very high selectivity, ratio >30-fold)
- Ki [5]: < 50 nM
- Ki [6]: < 50 nM
- Ki [7]: < 50 nM
- IC50 [8]: 0.1 to 50 nM
- IC50 [9]: 0.1 to 50 nM
- Ki [10]: > 500 nM
- IC50 [11]: > 500 nM

Compound: C[C@H]1Oc2cc(cnc2N)-c2c(C3CCC3)noc2Cn2ncnc2-c2ccc(F)cc21 [Example 52, (19R)-3-cyclobutyl-16-fluoro-19-methyl-5,20-dioxa-4,8,9,11,23-pentaazapentacyclo[19.3.1.0^2,^6.0^8,^12.0^13,^18]pentacosa-1(24),2(6),3,9,11,13,15,17,21(25),22-decaen-22-amine]
- IC50 [1]: 0.1 to 50 nM
- IC50 [2]: 0.1 to 50 nM
- Ki [3]: < 50 nM
- TPM3-NTRK1-wt/CD74-ROS1-G2032R selectivity ratio [4]: A (bin A for very high selectivity, ratio >30-fold)
- TPM3-NTRK1-wt/CD74-ROS1-wt selectivity ratio [4]: A (bin A for very high selectivity, ratio >30-fold)
- TPM3-NTRK1-wt/EML4-ALK-L1196M-G1202R selectivity ratio [4]: C (bin C for moderate selectivity, ratio ≥1)
- TPM3-NTRK1-wt/EML4-ALK-wt selectivity ratio [4]: A (bin A for very high selectivity, ratio >30-fold)
- Ki [5]: < 50 nM
- Ki [6]: < 50 nM
- Ki [7]: < 50 nM
- IC50 [8]: 50 to 500 nM
- IC50 [9]: 0.1 to 50 nM
- Ki [10]: > 500 nM
- IC50 [11]: > 500 nM

Compound: CCn1nnc2c1-c1cnc(N)c(c1)O[C@H](C)c1cc(F)ccc1-c1scnc1C2 [Example 53, (19R)-3-ethyl-16-fluoro-19-methyl-20-oxa-11-thia-3,4,5,9,23-pentaazapentacyclo[19.3.1.0^2,^6.0^8,^12.0^13,^18]pentacosa-1(24),2(6).4,8(12),9,13,15,17,21(25),22-decaen-22-amine]
- IC50 [1]: 0.1 to 50 nM
- IC50 [2]: 0.1 to 50 nM
- Ki [3]: < 50 nM
- TPM3-NTRK1-wt/CD74-ROS1-G2032R selectivity ratio [4]: A (bin A for very high selectivity, ratio >30-fold)
- TPM3-NTRK1-wt/CD74-ROS1-wt selectivity ratio [4]: A (bin A for very high selectivity, ratio >30-fold)
- TPM3-NTRK1-wt/EML4-ALK-L1196M-G1202R selectivity ratio [4]: C (bin C for moderate selectivity, ratio ≥1)
- TPM3-NTRK1-wt/EML4-ALK-wt selectivity ratio [4]: B (bin B for high selectivity, ratio >10-fold)
- Ki [5]: < 50 nM
- Ki [6]: < 50 nM
- Ki [7]: < 50 nM
- IC50 [8]: 50 to 500 nM
- IC50 [9]: 0.1 to 50 nM
- Ki [10]: > 500 nM
- IC50 [11]: > 500 nM
